Legend:
Test in all cases: microbe, parasite or virus in culture
Type in all cases: cell-based
Phytophthora infestans = conditions: 168 h, read-out: Fungal growth at 31 ppm (%) PHYTIN
Fusarium culmorum = conditions: 168 h
Septoria tritici = conditions: Zymoseptoria tritici, 168 h

Row | SMILES | activity at 31 ppm (Phytophthora infestans) | activity at 31 ppm (Fusarium culmorum) | activity at 31 ppm (Septoria tritici)
1 | CNC(=O)/C(=N/OC)c1cccc(C)c1CO/N=C(\C)c1cscn1 [Example 127] | 0% | – | –
2 | CNC(=O)/C(=N/OC)c1cccc(C)c1CO/N=C(/c1nccs1)C1CC1 [Example 110] | 0% | – | –
3 | CNC(=O)/C(=N/OC)c1cccc(C)c1CO/N=C(\C)c1cc(C(F)(F)F)cc(C)n1 [Example 80] | 0% | 16% | –
4 | CNC(=O)/C(=N/OC)c1cccc(C)c1CO/N=C(\C)c1nc(C(F)(F)F)cs1 [Example 95] | – | 17% | –
5 | CO/N=C(/C(=O)OC)c1cccc(C)c1CO/N=C(\C)c1ccccn1 [Example 129] | 0% | – | –
6 | CO/N=C(/C(=O)OC)c1cccc(C)c1CO/N=C(\C)c1ccc(C#CC2CC2)cn1 [Example 111] | 15% | – | –
7 | CNC(=O)/C(=N/OC)c1cccc(C)c1CO/N=C(\C)c1cc(C(F)F)nc(C)n1 [Example 62] | 0% | 11% | –
8 | CNC(=O)/C(=N/OC)c1cccc(C)c1CO/N=C(\C)c1ccnc(C(F)(F)F)c1 [Example 48] | 1% | 17% | –
9 | CNC(=O)/C(=N/OC)c1cccc(C)c1CO/N=C(\C)c1ccncc1 [Example 134] | 0% | 20% | –
10 | CO/N=C(/C(=O)OC)c1cccc(C)c1CO/N=C(\C)c1cc(-c2ccccc2)sn1 [Example 36] | 10% | – | –
11 | CO/N=C(/C(=O)OC)c1cccc(C)c1CO/N=C(\C)c1cccc(OC)n1 [Example 6] | – | – | 7%
12 | CO/N=C(/C(=O)OC)c1cccc(C)c1CO/N=C(\C)c1ccc(Cl)c(C(F)(F)F)c1 [Example 82] | 3% | 17% | –
13 | CNC(=O)/C(=N/OC)c1cccc(C)c1CO/N=C(\C)c1csc(C(F)(F)F)n1 [Example 115] | 0% | 13% | –
14 | CO/N=C(\C)c1cccc(/C(C)=N/OCc2c(C)cccc2/C(=N\OC)C(=O)OC)n1 [Example 31] | – | – | 13%
15 | CNC(=O)/C(=N/OC)c1cccc(C)c1CO/N=C(\C)c1cc(C(F)(F)F)c(C#N)cn1 [Example 99] | 20% | – | –
16 | CNC(=O)/C(=N/OC)c1cccc(C)c1CO/N=C(\C)c1cncc(C(F)(F)F)c1 [Example 85, (2E)-2-methoxyimino-N-methyl-2-[3-methyl-2-[[(E)-1-[5-(trifluoromethyl)-3-pyridyl]-ethylideneamino]oxymethyl]phenyl]acetamide] | 0% | 16% | –
17 | CNC(=O)/C(=N/OC)c1cccc(C)c1CO/N=C(\C)c1ncccc1F [Example 77] | 0% | 11% | –
18 | CNC(=O)/C(=N/OC)c1cccc(C)c1CO/N=C(\C)c1ncc(-c2ccc(F)cc2)s1 [Example 78, (2E)-2-[2-[[(E)-1-[5-(4-fluorophenyl)thiazol-2-yl]ethylideneamino]oxymethyl]-3-methyl-phenyl]-2-methoxyimino-N-methyl-acetamide] | 3% | 16% | –
19 | CO/N=C(/C(=O)OC)c1cccc(C)c1CO/N=C(\C)c1cc(-c2ccc(Cl)cc2)on1 [Example 18] | – | 16% | –
20 | CNC(=O)/C(=N/OC)c1cccc(C)c1CO/N=C(\C)c1cc(-c2ccccc2)on1 [Example 23] | 1% | 5% | –
21 | CO/N=C(/C(=O)OC)c1cccc(C)c1CO/N=C(\C)c1ncc(C(F)(F)F)s1 [Example 123, Methyl (2E)-2-methoxyimino-2-[3-methyl-2-[[(E)-1-[5-(trifluoromethyl)thiazol-2-yl]-ethylideneamino]oxymethyl]phenyl]acetate] | – | 17% | –
22 | CNC(=O)/C(=N/OC)c1cccc(C)c1CO/N=C(\C)c1cnc(C(F)(F)F)cn1 [Example 97, (2E)-2-methoxyimino-N-methyl-2-[3-methyl-2-[[(E)-1-[5-(trifluoromethyl)pyrazin-2-yl]ethylideneamino]oxymethyl]phenyl]acetamide] | 0% | 17% | –
23 | CNC(=O)/C(=N/OC)c1cccc(C)c1CO/N=C(\C)c1cc(N2CC(F)(F)C2)ccn1 [Example 90] | 0% | – | –
24 | C=Cc1cnc(/C(C)=N/OCc2c(C)cccc2/C(=N\OC)C(=O)NC)s1 [Example 144] | – | 14% | –
25 | CO/N=C(/C(=O)OC)c1cccc(C)c1CO/N=C(\C)c1cc(-c2ccccc2)on1 [Example 21] | 5% | – | –
26 | CNC(=O)/C(=N/OC)c1cccc(C)c1CO/N=C(\C)c1cc(-c2cccc(C(F)(F)F)c2)sn1 [Example 39] | 8% | 14% | –
27 | CO/N=C(/C(=O)OC)c1cccc(C)c1CO/N=C(\C)c1cnccc1C(F)(F)F [Example 155] | – | 18% | –

Row | SMILES | activity at 31 ppm (Phytophthora infestans) | activity at 31 ppm (Fusarium culmorum) | activity at 31 ppm (Septoria tritici)
28 | CNC(=O)/C(=N/OC)c1cccc(C)c1CO/N=C(\C)c1cncc(C(F)(F)F)n1 [Example 89, (2E)-2-Methoxyimino-N-methyl-2-[3-methyl-2-[[(E)-1-[6-(trifluoromethyl)pyrazin-2-yl]ethylideneamino]oxymethyl]phenyl]acetamide] | 0% | 13% | –
29 | CO/N=C(/C(=O)OC)c1cccc(C)c1CO/N=C(\C)c1cc(-c2ccc(F)cc2)on1 [Example 14] | – | 20% | –
30 | CNC(=O)/C(=N/OC)c1cccc(C)c1CO/N=C(\C)c1cccc(C)n1 [Example 81] | 0% | 9% | –
31 | CNC(=O)/C(=N/OC)c1cccc(C)c1CO/N=C(/c1nccs1)C(F)F [Example 154] | – | 14% | –
32 | C#Cc1cnc(/C(C)=N/OCc2c(C)cccc2/C(=N\OC)C(=O)NC)s1 [Example 61] | 19% | 11% | –
33 | CNC(=O)/C(=N/OC)c1cccc(C)c1CO/N=C(\C)c1cc(C#N)cc(Cl)n1 [Example 63] | 0% | 18% | –
34 | CO/N=C(/C(=O)OC)c1cccc(C)c1CO/N=C(\C)c1cn(C)nc1C(F)F [Example 49] | 0% | 17% | –
35 | CNC(=O)/C(=N/OC)c1cccc(C)c1CO/N=C(\C)c1cncc(F)c1 [Example 76] | 0% | 16% | –
36 | CNC(=O)/C(=N/OC)c1cccc(C)c1CO/N=C(\C)c1ncc(C(F)(F)F)s1 [Example 53, (2E)-2-Methoxyimino-N-methyl-2-[3-methyl-2-[[(E)-1-[5-(trifluoromethyl)thiazol-2-yl]ethylideneamino]oxymethyl]phenyl]acetamide] | – | 21% | –
37 | CO/N=C(/C(=O)OC)c1cccc(C)c1CO/N=C(\C)c1cscn1 [Example 126] | 0% | – | –
38 | CO/N=C(/C(=O)OC)c1cccc(C)c1CO/N=C(\C)c1cncc(F)c1 [Example 75] | 0% | – | –
39 | CNC(=O)/C(=N/OC)c1cccc(C)c1CO/N=C(\C)c1cc(C(F)(F)F)cc(C#N)n1 [Example 86] | 0% | 16% | –
40 | CNC(=O)/C(=N/OC)c1cccc(C)c1CO/N=C(\C)c1cn(C)nc1C(F)(F)F [Example 52] | – | 12% | –
41 | CNC(=O)/C(=N/OC)c1cccc(C)c1CO/N=C(\C)c1ccc(C#CC2CC2)nc1 [Example 69] | 0% | 11% | –
42 | CO/N=C(/C(=O)OC)c1cccc(C)c1CO/N=C(\C)c1cc(C(F)(F)F)nn1C [Example 117, Methyl (2E)-2-methoxyimino-2-[3-methyl-2-[[(E)-1-[2-methyl-5-(trifluoromethyl)pyrazol-3-yl]ethylideneamino]oxymethyl]phenyl]acetate] | – | 18% | –
43 | CO/N=C(/C(=O)OC)c1cccc(C)c1CO/N=C(\C)c1ccncc1 [Example 130] | 0% | 17% | –
44 | CO/N=C(/C(=O)OC)c1cccc(C)c1CO/N=C(\C)c1ncc(-c2ccc(F)cc2)s1 [Example 79, Methyl (2E)-2-[2-[[(E)-1-[5-(4-fluorophenyl)thiazol-2-yl]ethylideneamino]oxymethyl]-3-methyl-phenyl]-2-methoxyimino-acetate] | 17% | 13% | –
45 | CO/N=C(/C(=O)OC)c1cccc(C)c1CO/N=C(\C)c1cc(C(F)(F)F)cc(Cl)n1 [Example 42] | – | 10% | –
46 | CO/N=C(/C(=O)OC)c1cccc(C)c1CO/N=C(\C)c1cc(-c2ccc(F)cc2)sn1 [Example 11, Methyl (2E)-2-[2-[[(E)-1-[5-(4-fluorophenyl)isothiazol-3-yl]ethylideneamino]oxymethyl]-3-methyl-phenyl]-2-methoxyimino-acetate] | – | – | 10%
47 | CNC(=O)/C(=N/OC)c1cccc(C)c1CO/N=C(\C)c1cc(-c2cccc(C(F)(F)F)c2)on1 [Example 22, (2E)-2-Methoxyimino-N-methyl-2-[3-methyl-2-[[(E)-1-[5-[3-(trifluoromethyl)phenyl]-isoxazol-3-yl]ethylideneamino]oxymethyl]phenyl]acetamide] | 17% | – | –
48 | CNC(=O)/C(=N/OC)c1cccc(C)c1CO/N=C(\C)c1ccc(C#CC2CC2)cn1 [Example 112] | 2% | 21% | –
49 | CNC(=O)/C(=N/OC)c1cccc(C)c1CO/N=C(\C)c1cc(-c2ccc(F)cc2)on1 [Example 15] | 0% | 20% | –
50 | CNC(=O)/C(=N/OC)c1cccc(C)c1CO/N=C(\C)c1cc(-c2ccc(F)cc2)sn1 [Example 12, (2E)-2-[2-[[(E)-1-[5-(4-Fluorophenyl)isothiazol-3-yl]ethylideneamino]oxymethyl]-3-methyl-phenyl]-2-methoxyimino-N-methyl-acetamide] | 2% | 11% | –
51 | CNC(=O)/C(=N/OC)c1cccc(C)c1CO/N=C(\C)c1cn(C)nc1C(F)F [Example 50] | 0% | 18% | –
52 | CNC(=O)/C(=N/OC)c1cccc(C)c1CO/N=C(\C)c1cccc(F)n1 [Example 107] | 0% | 16% | –
53 | CNC(=O)/C(=N/OC)c1cccc(C)c1CO/N=C(\C)c1ccc(Cl)nn1 [Example 92] | 0% | 17% | –
54 | CNC(=O)/C(=N/OC)c1cccc(C)c1CO/N=C(\C)c1cccnc1 [Example 135] | 0% | 19% | –
